From patent US20110098442A1, “PEPTIDES AND PEPTIDE DERIVATIVES AS WELL AS PHARMACEUTICAL COMPOSITIONS CONTAINING THE SAME” (priority 2006, published 2011)
Groups on a side chain read outwards from the residue. No end group written: not given here.

System: mouse-adapted Dengue virus (DEN-2, strain P23085)
Experiment: Dengue virus infection in mice, mortality/survival
Assay type: in vivo, BALB/c mice
Conditions: 4.8 mg/kg/day intramuscular once a day for 5 days, starting on day 3 after infection, end of treatment period (day 10)
Experimental: A further possibility for establishing the biological effect in vivo is the reduction or complete suppression of mortality because of an infection with haemolytic viruses or bacteria. For this purpose, mice are, as described in Example 8, for instance infected with a dose of Dengue viruses, wherein 50% of the animals die within a period of 5-20 days after infection. The inventive compounds bring about a reduction of this mortality at a dose ranging from 0.001 to 500 mg/kg body weight, preferably at a dose ranging from […] body weight.
The biological effect of the compound of Example 3 was established in a model of Dengue virus infection in mice. 5-week-old male BALB/c mice were divided into 2 groups. All animals were infected subcutaneously with a mouse-adapted Dengue virus (DEN-2, strain P23085 at a dose of 1-2 LD50. 15 mice received 0.1 ml of 0.8% saline as intramuscular injection (control). The treated animals received 4.8 mg/kg/day of the agent of Example 3 as an intramuscular injection (diluted in 0.1 ml of 0.8% saline) once a day for 5 days, starting on day 3 after the virus infection.
At the end of the treatment period (day 10) the survival rates were compared.

Gly-His-Arg-Pro-Leu-Asp-Lys-Lys-Arg-Glu-Glu-Ala-Pro-Ser-Leu-Arg-Pro-Ala-Pro-Pro-Pro-Ile-Ser-Gly-Gly-Gly-Tyr-Arg-Cys-(S-succinimido-PEG20K)-amide (GHRPLDKKREEAPSLRPAPPPISGGGYRC([succinimido-PEG 20 kDa])-NH2) [Example 3]
Mortality (dead animals/animals in group) (infection dose 1-2 LD50): 0/10
Mortality Percentage (p < 0.05 vs control): 0%
